The values below come from ChEMBL document CHEMBL4028827, “Discovery of indazole aldosterone synthase (CYP11B2) inhibitors as potential treatments for hypertension” (Bioorg Med Chem Lett, 2017).

Bounds are passed on as bounds.

A short description of data set [1]: Intrinsic clearance in rat liver microsomes at […] preincubated for 10 mins followed by NADPH addition measured after 45 mins by LC-MS analysis. The class given is ADME, microsome. Conditions: read-out: CLH.
Data set [2] in a line: Selectivity ratio of IC50 for human CYP11B1-8C7 expressed in Chinese hamster V79 cells to IC50 for human CYP11B2-CLE9 expressed in Chinese hamster V79 cells.
In data set [3] the target is T1, Cytochrome P450 11B1, mitochondrial (Homo sapiens, UniProt P15538).
T1 sequence (P15538 whole entry): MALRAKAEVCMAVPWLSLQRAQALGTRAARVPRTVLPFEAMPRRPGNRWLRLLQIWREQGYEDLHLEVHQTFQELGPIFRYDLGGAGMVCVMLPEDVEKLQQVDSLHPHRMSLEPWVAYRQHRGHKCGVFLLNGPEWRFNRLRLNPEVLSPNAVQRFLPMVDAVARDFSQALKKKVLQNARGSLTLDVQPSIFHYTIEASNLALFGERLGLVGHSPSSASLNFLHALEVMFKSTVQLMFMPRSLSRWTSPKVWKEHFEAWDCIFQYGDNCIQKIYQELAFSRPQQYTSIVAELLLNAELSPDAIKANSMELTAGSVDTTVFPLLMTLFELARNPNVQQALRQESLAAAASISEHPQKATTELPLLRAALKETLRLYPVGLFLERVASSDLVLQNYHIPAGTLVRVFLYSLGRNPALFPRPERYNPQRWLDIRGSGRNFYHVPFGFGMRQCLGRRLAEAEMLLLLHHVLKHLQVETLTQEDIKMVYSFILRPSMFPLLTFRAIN
In words: Inhibition of human CYP11B1-8C7 expressed in Chinese hamster V79 cells using 11-deoxycortisol as substrate preincubated for 1 hr followed by substrate addition measured for 3 hrs by HTRF assay. The class given is ADME, cell-based.

The target in data set [4] is T2, Cytochrome P450 11B2, mitochondrial (Homo sapiens, UniProt P19099).
T2 sequence (P19099 whole entry): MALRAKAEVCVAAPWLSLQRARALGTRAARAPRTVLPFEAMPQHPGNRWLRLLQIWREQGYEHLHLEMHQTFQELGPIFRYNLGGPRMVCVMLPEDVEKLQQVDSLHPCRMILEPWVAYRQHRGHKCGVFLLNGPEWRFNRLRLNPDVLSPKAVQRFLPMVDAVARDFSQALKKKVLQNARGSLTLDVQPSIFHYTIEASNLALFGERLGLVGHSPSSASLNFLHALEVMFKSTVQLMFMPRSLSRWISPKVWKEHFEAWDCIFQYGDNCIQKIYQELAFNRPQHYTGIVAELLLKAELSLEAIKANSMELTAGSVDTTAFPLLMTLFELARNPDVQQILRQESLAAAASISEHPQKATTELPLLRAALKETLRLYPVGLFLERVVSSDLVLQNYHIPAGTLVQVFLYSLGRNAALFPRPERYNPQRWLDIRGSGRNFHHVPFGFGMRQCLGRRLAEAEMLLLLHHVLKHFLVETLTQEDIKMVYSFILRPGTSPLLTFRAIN
As to the kind of experiment: Inhibition of human CYP11B2-CLE9 expressed in Chinese hamster V79 cells using 11-deoxycorticosterone as substrate preincubated for 1 hr followed by substrate addition measured for 3 hrs by HTRF assay. It is filed as cell-based.

As to `CC(C)(O)c1cncc(-n2ncc3cccc(F)c32)c1`, in data set [1], the CLint scaled was less than 20 mL/min/kg. In addition, the “Ratio IC50” value in data set [2] stood at 12. Also, the IC50 (commonly the point on the concentration scale where inhibition reaches its midpoint) was 10.7 to 11 nM in data set [3] and 0.9 nM in data set [4].

For `CC(O)(c1cncc(-n2ncc3cc(F)ccc32)c1)C(F)(F)F` (configuration not stated), the CLint scaled in data set [1] was determined as 230 mL/min/kg. In addition, in data set [2], the “Ratio IC50” value came out at 24. Further, the IC50 in data set [3] fell in the range of 47 to 47.4 nM; in data set [4], 2 to 2.13 nM.

Take `CC(C)(O)c1cncc(-n2ncc3cc(C#N)ccc32)c1`: in data set [2], the “Ratio IC50” value was more than 7. Also, the IC50 is 8300 to 8330 nM in data set [3] and 1160 nM in data set [4].

With `Cc1nn(-c2cncc(C(C)(C)O)c2)c2ccccc12`, the “Ratio IC50” value in data set [2] was found to be 44. The IC50 in data set [3] lay within 779 to 780 nM; in data set [4], 33.5 to 34 nM.

With `CC(C)(O)c1cncc(-n2ncc3ccc(F)cc32)c1`, the CLint scaled in data set [1] came out at 83 mL/min/kg. Moreover, in data set [2], the “Ratio IC50” value is listed as 25. In addition, the IC50 in data set [3] lay in the range of 1990 to 2000 nM; in data set [4], 78.5 to 79 nM.

As to `CC(C)(O)c1cncc(-n2ncc3c(F)ccc(F)c32)c1`, the CLint scaled in data set [1] is less than 20 mL/min/kg. Also, the “Ratio IC50” value in data set [2] is on record as 6 - 11. The IC50 in data set [3] lay within 1.8 to 8.9 nM; in data set [4], 0.3 to 0.8 nM.

With `CC(C)(O)c1cncc(-n2ncc3c(Cl)ccc(F)c32)c1`, in data set [2], the “Ratio IC50” value is 5 - 20. Moreover, the IC50 lay within 1.1 to 7.72 nM in data set [3] and 0.2 to 0.4 nM in data set [4].

Consider `CC(C)(O)c1cncc(-n2nc(C(F)(F)F)c3ccccc32)c1`, for which the “Ratio IC50” value in data set [2] was more than 27. Also, the IC50 in data set [3] lay within 8300 to 8330 nM; in data set [4], 300 to 304 nM.

As for `Cc1cccc2c1cnn2-c1cncc(C(C)(C)O)c1`, the “Ratio IC50” value in data set [2] is listed as 27. The IC50 in data set [3] is 210 nM; in data set [4], 7.77 to 8 nM.

Regarding `CC(C)(O)c1cncc(-n2ncc3cc(F)ccc32)c1`, the CLint scaled in data set [1] was found to be 30 mL/min/kg. In data set [2], the “Ratio IC50” value is recorded as 15 - 19. The IC50 was in the range of 197 to 210 nM in data set [3] and 10.9 to 13 nM in data set [4].

Consider `CC(C)(O)c1cncc(-n2ncc3ccccc32)c1`, for which the CLint scaled in data set [1] was less than 20 mL/min/kg. Also, the “Ratio IC50” value in data set [2] is 36. In addition, the IC50 fell in the range of 535 to 540 nM in data set [3] and 15 to 15.1 nM in data set [4].

On to `CC(C)(O)c1cncc(-n2ncc3ccc(Cl)cc32)c1`, for which the “Ratio IC50” value in data set [2] is recorded as more than 16. The IC50 fell in the range of 8300 to 8330 nM in data set [3] and 528 to 530 nM in data set [4].

As for `Fc1ccc2c(cnn2-c2cncc(C(F)(F)F)c2)c1`, in data set [1], the CLint scaled was found to be 300 mL/min/kg. The “Ratio IC50” value in data set [2] is reported as 19. The values for the IC50 in data set [3] and in data set [4] were 1690 to 1700 nM and 88 to 88.3 nM, respectively.

Turning to `COC(=O)c1cncc(-n2ncc3cc(F)ccc32)c1`, the “Ratio IC50” value in data set [2] is given as 17. Also, the figures for the IC50 in data set [3] and in data set [4] were 520 nM and 31 nM, respectively.

As to `CC(C)(O)c1cncc(-n2ncc3cc(Cl)ccc32)c1`, the “Ratio IC50” value in data set [2] came to 17. Further, the IC50 in data set [3] was 470 nM; in data set [4] it was 27 to 27.3 nM.

As for `COc1ccc2c(cnn2-c2cncc(C(C)(C)O)c2)c1`, the “Ratio IC50” value in data set [2] came to 12. The results for the IC50 in data set [3] and in data set [4] were 1000 nM and 84.9 to 85 nM, respectively.

On to `CC(C)(O)c1cncc(-n2ncc3ccc(C(F)(F)F)cc32)c1`, for which, in data set [2], the “Ratio IC50” value is recorded as more than 4. In addition, the IC50 was 8300 to 8330 nM in data set [3] and 2300 nM in data set [4].

Regarding `Fc1cncc(-n2ncc3cc(F)ccc32)c1`, the CLint scaled in data set [1] turned out to be 85 mL/min/kg. Moreover, the “Ratio IC50” value in data set [2] is more than 18. Besides, the IC50 is 8300 to 8330 nM in data set [3] and 456 to 460 nM in data set [4].

As for `Fc1ccc2c(cnn2-c2cccnc2)c1`, the CLint scaled in data set [1] is 43 mL/min/kg. Further, the “Ratio IC50” value in data set [2] is given as more than 38. Further, the values for the IC50 in data set [3] and in data set [4] were 8300 to 8330 nM and 217 to 220 nM, respectively.

Take `CC(C)(O)c1cncc(-n2ncc3c(F)cccc32)c1`: the CLint scaled in data set [1] is 64 mL/min/kg. Besides, in data set [2], the “Ratio IC50” value is given as 19. The results for the IC50 in data set [3] and in data set [4] were 149 to 150 nM and 7.58 to 8 nM, respectively.

Consider `COc1nn(-c2cncc(C(C)(C)O)c2)c2ccccc12`, for which, in data set [2], the “Ratio IC50” value was determined as 57. For the same compound, the values for the IC50 in data set [3] and in data set [4] were 1400 to 1410 nM and 25 nM, respectively.

On to `COc1cncc(-n2ncc3cc(F)ccc32)c1`, for which the “Ratio IC50” value in data set [2] is recorded as 30. The 50% inhibitory concentration (IC50) was 1300 nM in data set [3] and 44 to 44.1 nM in data set [4].

For `CC(C)(O)c1cncc(-n2nc(C3CC3)c3ccccc32)c1`, in data set [2], the “Ratio IC50” value is listed as more than 11. In addition, the IC50 in data set [3] is 8300 to 8330 nM; in data set [4] it was 760 to 763 nM.

As for `CC(C)(O)c1cncc(-n2ncc3cc(C(F)(F)F)ccc32)c1`, the CLint scaled in data set [1] is less than 20 mL/min/kg. In addition, in data set [2], the “Ratio IC50” value turned out to be 2. Also, the IC50 in data set [3] fell in the range of 1200 to 1240 nM; in data set [4], 507 to 510 nM.

`COC(=O)c1cccc2c1cnn2-c1cncc(C(C)(C)O)c1` came in with an IC50 in data set [4] of 22 to 22.1 nM.

As for `Cc1ccc2c(cnn2-c2cncc(C(C)(C)O)c2)c1`, the “Ratio IC50” value in data set [2] worked out at 9. Also, the figures for the IC50 in data set [3] and in data set [4] were 916 to 920 nM and 97.9 to 98 nM, respectively.
